Data published in patent US9517267B2, “Photodynamic diagnostic agent and photobleaching inhibitor” (SBI Pharmaceuticals Co., Ltd., priority 2012, dated 2016).
“Also recorded” adds a separate entry of the source.

How the values were obtained:
[1] = system: PpIX in MKN45 cells; experiment: Photobleaching inhibitory effect for PpIX produced from ALA in cells with gallic acids or other reductants (Example 1); type: cell-based; settings: excitation 400 nm, fluorescence 635 nm; for photobleaching inhibitory effect for PpIX: 1 mM ALA 24 h, reductant in 50% glycerol PBS (NPG 2%, PPD 0.5%, DABCO 5%, Prolong Gold as sold), 0-180 s
Method: (§1) MKN45 cells were seeded in a 35 mm dish at 0.5×10^6 cells, and the culture medium on the 35 mm dish was 2 mL. Ten μL of 0.2 M ALA hydrochloride (5-aminolevulinic acid hydrochloride) solution was added to the 2 mL of culture medium in the 35 mm dish to achieve the final concentration of ALA in the culture medium at 1 mM. This 35 mm dish was cultured in a 5% CO2 incubator at 37° C. for 24 hours. The cells were then washed with 1 ml of PBS, 1 mL of each of the following reductant solutions (dissolved in 50% glycerol PBS solution) were added on ice, the cells were immediately scraped off with a cell scraper, and the cells were suspended by pipetting. The fluorescence intensity at 635 nm of each of these cell suspensions under the excitation light at 400 nm was measured. The fluorescence intensity was measured from 0 seconds post irradiation of excitation light for every 10 seconds until 180 seconds post irradiation. Not limited to Example 1, the measurement of fluorescence intensity was performed with irradiation of the excitation light even after the 0 seconds post irradiation of excitation light.
The following were employed at the following final concentrations as each reductant:
Paraphenylenediamine (hereinafter abbreviated as “PPD”): 0.5%
n-propyl gallate (hereinafter abbreviated as “NPG”): 2%
1-4-diazabicyclo[2.2.2]-octane (hereinafter abbreviated as “DABCO”): 5%
Prolong Gold™: approximately 1% as the active ingredient sodium azide
Since Prolong Gold (an anti-fade agent from Invitrogen) was sold as a solution containing approximately 1% of sodium azide, it was added directly as the commercially available solution without employing 50% glycerol/PBS to carry out the investigation.

[2] = Dissolution of alkyl gallates at 50 mM in Gly+PBS or DMSO; type: physicochemical; settings: for solubility in Gly+PBS solution: 0.3 mmol in 6 mL (50 mM) 50% glycerol PBS
Method: (§2) (1) In order to prepare 50 mM solutions of each alkyl gallate, 0.3 mmol of each alkyl gallate was placed in a 15 mL tube, and 6 mL of 50% glycerol PBS solution (a mixture of glycerol and PBS at a proportion of 1:1, hereinafter may be notated as “Gly+PBS” or “Gly+PBS solution”) or DMSO was added and dissolved.

[3] = Photobleaching inhibitory effect for porphyrins by each alkyl gallate in solution (Example 4); type: physicochemical; settings: 50 mM alkyl gallate, 1 μM PpIX; for t/2 of PpIX fluorescence intensity: excitation 402 nm, 0.4 mA, pseudo-first-order
Method: The photobleaching inhibitory effect for porphyrins by gallic acids was measured with the following procedure. Methyl gallate (MeG, from Wako, Cat. No. 134-09812), butyl gallate (BuG, from Wako, Cat. No. 322-67472), n-propyl gallate (PrG, from Wako, Cat. No. 162-06832), and octyl gallate (OcG, from Wako, Cat. No. 322-56482) were employed as gallic acids. The gallic acids employed here are all compounds having a linear alkyl.
as §2
(3) After dispensing 990 μL of alkyl gallate into a 2 mL vial, 10 μL of 100 μM PpIX was added (final concentration of PpIX at 1 μM).
(4) Measurement of the fluorescence spectrum was performed for each alkyl gallate+PpIX solution prepared in (3) with a simplified fluorescence measurement device. LED was employed as the light source, the wavelength of the excitation light employed was 402 nm, the output current was set at 0.4 mA, and the measurement interval was every 10 seconds until 180 seconds for measurement.
For each of the plots above in FIG. 14 and FIG. 15 when a Gly+PBS solution and a DMSO solution was employed as the solvent for gallic acid, the relative fluorescence intensity was calculated by setting the fluorescence intensity immediately post irradiation (0 seconds later) as 1, and the transition of fluorescence intensity of PpIX was plotted with the calculated relative intensity as the vertical axis as shown in FIG. 16 and FIG. 17, respectively. This transition of relative fluorescence intensity was treated as a pseudo-first-order reaction to determine the half-life, and shown in Table 2 and Table 3, respectively.

[4] = Absorption spectrum 350 nm-750 nm of alkyl gallate solutions; type: physicochemical; settings: 50 mM alkyl gallate solution
Method: (2) Measurement of the absorption spectrum at 350 nm-750 nm was performed with 1000 μL of each alkyl gallate solution prepared in (1).
Since the fluorescent substance protoporphyrin IX (PpIX) has a sharp absorbance at around 400 nm, and a light at around 400 nm is employed as the excitation light, it was deemed possible that excitation of PpIX could be inhibited when employing butyl gallate.

[5] = system: PpIX in MKN45 cells; experiment: PpIX fluorescence half-life in ALA-loaded cells with 1% NPG at varied excitation light intensity (Example 3); type: cell-based
Method: as §1
In a method similar to Example 1, 1 mL of 1% n-propyl gallic acid (NPG) solution was added, and the intensity of the excitation light was altered to 0.1 mA, 0.2 mA, 0.3 mA, and 0.4 mA to measure the fluorescence intensity.

[6] = system: PpIX in MKN45 cells; experiment: Photobleaching inhibitory effect for PpIX produced from ALA in cells with other reductants (Example 2); type: cell-based; settings: 1 mM ALA 24 h, ascorbic acid 500 μM, tocopherol 500 μM, lutein 10 μM in PBS, excitation 400 nm, fluorescence 635 nm, 0-180 s
Method: Photobleaching suppression effect for PpIX was measured for other reductants. The following were employed as the reductants. Each reductant solution was prepared by the following method and each of the prepared solutions was used as sample solvents for photobleaching measuring.
Solution supplemented with 5 μL of ascorbic acid (solvent: milli Q, concentration of supplemented solution: 100 mM) was added to 1 mL of PBS to prepare an ascorbic acid solution having a final concentration of 500 μM.
Solution supplemented with 5 μL of tocopherol (solvent: DMSO, concentration of supplemented solution: 100 mM) was added to 1 mL of PBS to prepare a tocopherol solution having a final concentration of 500 μM.
Solution supplemented with 5 μL of lutein (solvent: DMSO, concentration of supplemented solution: 2 mM) was added to 1 mL of PBS to prepare a lutein solution having a final concentration of 10 μM.
MKN45 cells were seeded in a 35 mm dish at 0.5×10^6 cells, and the culture medium on the 35 mm dish was 2 mL. Ten μL of 0.2 M ALA hydrochloride (5-aminolevulinic acid hydrochloride) solution was added to the 2 mL of culture medium in the 35 min dish to achieve the final concentration of ALA in the culture medium at 1 mM. This 35 mm dish was cultured in a 5% CO2 incubator at 37° C. for 24 hours. The cells were then washed with 1 ml of PBS, and then 1 mL of each of the reductant solutions prepared as above were added, the cells were immediately scraped off with a cell scraper, and the cells were suspended by pipetting. The fluorescence intensity at 635 nm of each of these cell suspensions under the excitation light at 400 nm was measured. The fluorescence intensity was measured from 0 seconds post irradiation of excitation light for every 10 seconds until 180 seconds post irradiation. The measurement of fluorescence intensity was performed with irradiation of the excitation light even after the 0 seconds post irradiation of excitation light.

[7] = Gly + PBS solution, fluorescence 627 nm

| Molecule | photobleaching inhibitory effect for PpIX [1] | fluorescence intensity of PpIX after 30 seconds and 60 seconds relative to 0 seconds ([3]; DMSO solution) | t/2 of PpIX fluorescence intensity ([3]; DMSO, fluorescence 632 nm) [s] | t/2 of PpIX fluorescence intensity [3, 7] [s] | fluorescence intensity of PpIX after 30 seconds and 60 seconds relative to 0 seconds ([3]; Gly+PBS solution) | effect of inhibiting photobleaching of PpIX [6] | also measured |
| --- | --- | --- | --- | --- | --- | --- | --- |
| Nc1ccc(N)cc1 [PPD, Paraphenylenediamine] | a state of high fluorescence intensity as with NPG could not be maintained; also recorded: no or almost no effect |  |  |  |  |  | fluorescence intensity at 0 seconds post irradiation of excitation light ([1]; 1 mM ALA, PPD 0.5%): markedly reduced |
| CCCCOC(=O)c1cc(O)c(O)c(O)c1 [BuG, butyl gallate] |  | only modestly reduced | 533.2 | 385.1 | only modestly reduced |  | solubility in Gly+PBS solution [2]: able to dissolve; solubility in DMSO ([2]; 0.3 mmol in 6 mL (50 mM) DMSO): able to dissolve; absorbance at around 400 nm [4]: found to have absorbance at around 400 nm |
| CCCCCCCCOC(=O)c1cc(O)c(O)c(O)c1 [OcG, octyl gallate] |  | only modestly reduced | 239.0 |  |  |  | solubility in Gly+PBS solution [2]: could not be dissolved |
| C1CN2CCN1CC2 [DABCO, 1-4-diazabicyclo[2.2.2]-octane] | insufficient; also recorded: no or almost no effect |  |  |  |  |  |  |
| CCCOC(=O)c1cc(O)c(O)c(O)c1 [NPG, n-propyl gallate] | superior photobleaching inhibitory effect was observed | only modestly reduced | 231.0 | 239.0 | only modestly reduced |  | duration of fluorescence in fluorescence microscope images ([5]; 1% NPG vs vehicle, 0, 1, 2, 3 minutes post irradiation (FIG. 4)): fluorescence was maintained for a longer duration; prolongation of half-life versus vehicle ([5]; excitation light 0.4 mA, NPG 1%): three folds; fluorescence intensity after 180 seconds post irradiation, relative to control at 0 seconds ([1]; 1 mM ALA, NPG 2%): about half |
| COC(=O)c1cc(O)c(O)c(O)c1 [MeG, Methyl gallate] |  | only modestly reduced | 239.0 | 346.6 | only modestly reduced |  |  |
| tocopherol |  |  |  |  |  | do not have the effect of inhibiting photobleaching; also recorded: no or almost no effect |  |
| O=C1O[C@H]([C@@H](O)CO)C(O)=C1O [ascorbic acid] |  |  |  |  |  | do not have the effect of inhibiting photobleaching; also recorded: no or almost no effect |  |
| CC1=C[C@H](O)CC(C)(C)[C@H]1/C=C/C(C)=C/C=C/C(C)=C/C=C/C=C(C)/C=C/C=C(C)/C=C/C1=C(C)C[C@@H](O)CC1(C)C [lutein] |  |  |  |  |  | do not have the effect of inhibiting photobleaching |  |
